Laboratory results taken from patent US20220073910A1, “A Cross-Linking Approach to Map Small Molecule-RNA Binding Sites in Cells” (priority 2019, published 2022).
Starred links: 1 amine or outer side, 2 acyl side, 3 side chain; linkers in the order of their positions; H or OH if unused. Non-standard residues stand in square brackets, D forms with d. Residues, ends and D or L forms follow the SMILES beside them. *: point of attachment. Biotinyl(3aR,4R,6aS) = O=C1N[C@@H]2[C@@H](CS[C@@H]2CCCCC(=O)*)N1; N(2-Aminoethyl)Gly = O=C(CN(CCN[*:3])[*:1])[*:2]; Chlorambucil = O=C(CCCc1ccc(N(CCCl)CCCl)cc1)*; Gly(N-propargyl) = C#CCNCC(=O)O; NPrGly = CCCNCC(=O)O

Tests used:
[1] = system: miRNAs predicted to target FOXO1 mRNA; assay: Profiling of 15 miRNAs predicted by TargetScan to target FOXO1 3' UTR; type: cell-based; settings: MDA-MB-231 cells
Protocol: (§1) A—Effects of compounds 1 and 2 (50 nM) on mature miR-96 and pri-miR-96 levels. B—Effects of compounds 1 and 2 (50 nM) on FOXO1 protein expression. C— Profiling of miRNAs predicted to target FOXO1 mRNA by TargetScan in compound 2-treated MDA-MB-231 cells. D—Volcano plot profiling the effect of compound 2 on all miRNAs that are expressed in MDA-MB-231 cells (blue circles are miRNAs predicted to target FOXO1 mRNA by TargetScan). E—Effects of compounds 1, 2, and 3 on Caspase 3/7 activity, indicative of apoptosis, in MDA-MB-231 TNBC cells. F—Effects of compounds 1, 2, and 3 on Caspase 3/7 activity, indicative of apoptosis, in MCF-10A normal breast epithelial cells.
(§2) Since miR-96 suppresses apoptosis in cancer cells by repressing the translation of Forkhead box 01 (FOXO1) transcription factor,^15 the effects of 1, 2, and 3 on FOXO1 protein levels were measured in MDA-MB-231 cells. […] To validate that the increase in FOXO1 levels was mediated by inhibition of miR-96, we studied the effects of 1 and 2 on all 15 miRNAs predicted to target the FOXO1 3′ untranslated region (UTR) by TargetScan (FIG. 3C). […] To further probe 2's selectivity for pri-miR-96, we performed an unbiased profiling experiment on 373 miRNAs expressed in MDA-MB-231 TNBC cells (based on Qiagen miRNA Human miRbase profiler HC).

[2] = system: pri-miR-96; settings: in cells, cited from earlier work
[3] = system: pri-miR-96 (Drosha processing); assay: RT-qPCR of mature miR-96 and pri-miR-96 levels in MDA-MB-231 TNBC cells; type: cell-based; settings: MDA-MB-231 cells, 50 nM
Protocol: as §1

[4] = system: pri-miR-96; assay: Chem-CLIP-Map-Seq binding site mapping within pri-miR-96 in MDA-MB-231 TNBC cells; type: cell-based; settings: MDA-MB-231 cells, 1000 nM
Source text: A—Scheme of amplification approach to identify small molecule binding site in pri-miR-96. B— In cellulis mapping of the binding site for compound 2 within pri-miR-96 in MDA-MB-231 TNBC cells. Percentages indicate the number of sequences observed terminating at the respective nucleotide adjacent to the percentage.
Given the enrichment of pri-miR-96 in the pulled down fraction and 2's pro-apoptotic properties, we mapped 2's binding site within pri-miR-96 in cells. We defined 2's cellular binding site within pri-miR-96. […] After reverse transcription, ssDNA adaptors were ligated to the cDNA, followed by which was cloned into NEB's pminiT 2.0 vector and sequenced. Mirroring the predicted and validated (via nuclease mapping^14) binding site, 2's binding site was localized to nucleotides that are proximal to pri-miR-96's Drosha site (FIG. 4B). In particular, the most occupied binding site observed is a C residue four nucleotides upstream of the UU internal loop bound by 1 (54%; highlighted in red in FIG. 4). Two other reactions sites were observed: (i) a G residue in the GG internal loop that binds 1 (14%); and (ii) a U residue 13 nucleotides upstream of the UU internal loop that is part of the Drosha processing site (24%). To support our cellular mapping experiments, we modeled 2 bound to pri-miR-96 (FIG. 4B). Indeed, the distance between 2's cross-linking module and the most reacted nucleotides match precisely.

[5] = system: pri-miR-96; settings: in vitro, cited from earlier work; for pulldown of pri-miR-96 adducts with streptavidin beads: radioactively labeled pri-miR-96 RNA
[6] = system: FOXO1 protein; assay: FOXO1 protein expression in MDA-MB-231 cells; type: cell-based; settings: 50 nM
Protocol: as §1, §2

[7] = system: MDA-MB-231 TNBC cells; assay: Caspase 3/7 activity (apoptosis) in MDA-MB-231 TNBC cells; type: cell-based; settings: MDA-MB-231 cells
Protocol: as §1
(§3) We next studied the ability of 1 and 2 to trigger apoptosis, i.e., reverse phenotype, in MDA-MB-231 by measuring Caspase activity. […] Compound 3 had no effect on Caspase activity, as expected. […] Thus, the covalent compounds show relative selectivity for cancerous over healthy breast cells.

[8] = system: 373 miRNAs expressed in MDA-MB-231 TNBC cells; assay: Unbiased profiling of 373 miRNAs expressed in MDA-MB-231 TNBC cells; type: cell-based; settings: Qiagen miRNA Human miRbase profiler HC
Protocol: as §1, §2

[9] = system: MCF-10A cells; assay: Caspase 3/7 activity (apoptosis) in MCF-10A normal breast epithelial cells; type: cell-based; settings: healthy breast epithelial MCF-10A cells
Protocol: as §1, §3

CCCN(CC(=O)N(CC(=O)N(CCNC(=O)CCCC[C@H]1SC[C@H]2NC(=O)N[C@H]21)CC(N)=O)Cc1cn(CCCNC(=O)CCCOc2c(C(C)(C)C)cc(-c3nc4cc(N5CCN(C)CC5)ccc4[nH]3)cc2C(C)(C)C)nn1)C(=O)CN(CCNC(=O)CCCc1ccc(N(CCCl)CCCl)cc1)C(=O)CCCOc1cccc(-c2nc3ccc(-c4nc5cc(N6CCN(C)CC6)ccc5[nH]4)cc3[nH]2)c1 [compound 2]
effect on all 15 miRNAs predicted to target the FOXO1 3' UTR [1]: Only miR-96 was inhibited significantly | enrichment of pri-miRNA-96 in the pulled down fraction ([2]; compared to sample prior to incubation with streptavidin beads, RT-qPCR): 5 fold | increase in pri-miR-96 abundance [3]: ca. 1.5 fold | mature miR-96 levels [3]: reduced to a similar extent as the parent compound 1 | sequences terminating at reaction site: C residue four nucleotides upstream of the UU internal loop [4]: 54% | sequences terminating at reaction site: G residue in the GG internal loop [4]: 14% | sequences terminating at reaction site: U residue 13 nucleotides upstream of the UU internal loop (Drosha processing site) [4]: 24% | pulldown of pri-miR-96 adducts with streptavidin beads [5]: Specific engagement | FOXO1 protein expression [6]: enhanced the expression of FOXO1 protein | Caspase activity indicative of apoptosis [7]: increased Caspase activity | selectivity profiling on 373 miRNAs (volcano plot) [8]: miR-96 was the most affected | Caspase activity indicative of apoptosis [9]: neither 1 nor 2 had any effect

C#CCN(CC(=O)N(CCNC(=O)CCCC[C@H]1SC[C@H]2NC(=O)N[C@H]21)CC(N)=O)C(=O)CN(CCC)C(=O)CN(CCNC(=O)CCCc1ccc(N(CCCl)CCCl)cc1)C(C)=O [compound 3] (Ac-[N(2-Aminoethyl)Gly](Chlorambucil)[NPrGly][Gly(N-propargyl)][N(2-Aminoethyl)Gly](Biotinyl(3aR,4R,6aS))-NH2)
mature miR-96 levels [3]: No effect | pulldown of pri-miR-96 adducts with streptavidin beads [5]: no pulldown | Caspase activity indicative of apoptosis [7]: no effect

CCCN(CC(=O)N(CCC)CC(=O)N(CC(N)=O)Cc1cn(CCCNC(=O)CCCOc2c(C(C)(C)C)cc(-c3nc4cc(N5CCN(C)CC5)ccc4[nH]3)cc2C(C)(C)C)nn1)C(=O)CCCOc1cccc(-c2nc3ccc(-c4nc5cc(N6CCN(C)CC6)ccc5[nH]4)cc3[nH]2)c1 [compound 1, Targaprimir-96]
effect on all 15 miRNAs predicted to target the FOXO1 3' UTR [1]: Only miR-96 was inhibited significantly | competition of pri-miR-96 pulldown (cellular C-Chem-CLIP) ([2]; increasing concentration of 1): decreased as a function of the concentration of 1 | increase in pri-miR-96 abundance [3]: ca. 1.5 fold | mature miR-96 levels [3]: reduced | competition of pri-miR-96 pulldown by 2 (C-Chem-CLIP) ([5]; constant 2 (1000 nM), increasing amounts of 1): 1-dependent decrease in the amount of RNA pulled down by 2 | FOXO1 protein expression [6]: enhanced the expression of FOXO1 protein | Caspase activity indicative of apoptosis [7]: increased Caspase activity | Caspase activity indicative of apoptosis [9]: neither 1 nor 2 had any effect
